Data on one molecule can be found in patent US20160007606A1, “MICROBIOCIDAL PYRAZOLE DERIVATIVES” (SYNGENTA PARTICIPATIONS AG, priority 2012, published 2016).

The structures appear in SMILES notation.

In the case of `Cc1cc(C(F)(F)F)nn1CC(=O)N1CCN(c2nc(C3=NOC(c4c(F)cccc4F)C3)cs2)CC1C(=O)O` (stereo not shown), the melting point was 178 to 185 °C.

The melting point is the temperature of the solid-liquid transition.
